Columns and labels:
[1] = test system: barnyardgrass; assay: Test B flooded paddy test; type: in vivo, Echinochloa crus-galli; conditions: 1000 g ai/ha, visual rating, scale 0 to 100 (0 no effect, 100 complete control), 13 to 15 days
Method in brief: (§1)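 Paddy species grown to the 2-leaf stage under flooding; blackgrass sprayed postemergence at 2–18 cm (1- to 4-leaf stage). Plants kept in a greenhouse for 13 to 15 days, then visually rated against controls on 0 (no effect) to 100 (complete control).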

[2] = test system: wheat; assay: Test B postemergence herbicide test; type: in vivo, Triticum aestivum; parameters: key to Wheat plant response rating: 0 = no effect, 100 = complete control; conditions: scale 0 (no effect) to 100 (complete control)
Method in brief: (§2)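 Greenhouse test; postemergence application to plants at 1–4 leaves (2–18 cm); paddy species at 2 leaves; evaluated visually vs controls at 13–15 days; scale 0–100 (100 = complete control).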

[3] = test system: Surinam grass; assay: Test B pre-/postemergence herbicide test; type: in vivo, Urochloa decumbens
Method in brief: (§3)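 Evaluation is visual, comparing treated with control plants on a scale where 0 means no effect and 100 means full control. Treatments were preemergence, or postemergence on seedlings 2–18 cm tall, and held 13–15 days in the greenhouse.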

[4] = test system: barnyardgrass; assay: Test B pre-/postemergence herbicide test; type: in vivo, Echinochloa crus-galli
Method in brief: (§4)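 Test chemicals in a non-phytotoxic solvent mixture with surfactant were applied preemergence to seeded species and postemergence to plants 2-18 cm tall (1- to 4-leaf stage); rice and barnyardgrass were also tested in a flooded paddy at the 2-leaf stage. Visual rating versus controls after 13-15 days in greenhouse, scale 0 (no effect) to 100 (complete control).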

[5] = test system: morningglory; assay: Test B pre-/postemergence herbicide test; type: in vivo, Ipomoea coccinea
Method in brief: as §4

[6] = test system: cocklebur; assay: Test B pre-/postemergence herbicide test; type: in vivo, Xanthium strumarium
Method in brief: as §4

[7] = test system: lambsquarters; assay: Test B pre-/postemergence herbicide test; type: in vivo, Chenopodium album
Method in brief: as §3

[8] = test system: giant foxtail; assay: Test B pre-/postemergence herbicide test; type: in vivo, Setaria faberi
Method in brief: as §3

[9] = test system: small flower umbrella sedge; assay: Test B flooded paddy test; type: in vivo, Cyperus difformis; conditions: 1000 g ai/ha, visual rating, scale 0 to 100 (0 no effect, 100 complete control), 13 to 15 days
Method in brief: as §1

[10] = test system: rice; assay: Test B pre-/postemergence herbicide test; type: in vivo, Oryza sativa; conditions: preemergence, 125 g ai/ha; 0 to 100 scale, 0 is no effect, 100 is complete control
Text: Seeds selected from barnyardgrass (Echinochloa crus-galli (L.) Beauv.), Surinam grass (Urochloa decumbens (Staph) R. D. Webster, previously named Brachiaria decumbens Stapf), cocklebur (Xanthium strumarium L.), corn (Zea mays L.), large crabgrass (Digitaria sanguinalis (L.) Scop.), giant foxtail (Setaria faberi Herim.), lambsquarters (Chenopodium album L.), morningglory (Ipomoea coccinea L.), pigweed (Amaranthus retroflexus L.), rice (Oryza sativa L.) and velvetleaf (Abutilon theophrasti Medik.) were planted and treated preemergence with test chemicals formulated in a non-phytotoxic solvent mixture which included a surfactant.
At the same time, plants selected from these crop and weed species and also blackgrass (Alopecurus myosuroides Huds.), wheat (Triticum aestivum L.) and wild oat (Avena fatua L.) were treated with postemergence applications of test chemicals formulated in the same manner. Plants ranged in height from 2 to 18 cm (1- to 4-leaf stage) for postemergence treatments. Plant species in the flooded paddy test consisted of rice (Oryza sativa L.), small flower umbrella sedge (Cyperus difformis L.), ducksalad (Heteranthera limosa (Sw.) Willd.) and barnyardgrass (Echinochloa crus-galli (L.) Beauv.) grown to the 2-leaf stage for testing. Treated plants and controls were maintained in a greenhouse for 13 to 15 days, after which time all species were compared to controls and visually evaluated. Plant response ratings, summarized in Table B, are based on a scale of 0 to 100 where 0 is no effect and 100 is complete control. A dash (-) response means no test result.

[11] = test system: rice; assay: Test B flooded paddy test; type: in vivo, Oryza sativa; conditions: 1000 g ai/ha, visual rating, scale 0 to 100 (0 no effect, 100 complete control), 13 to 15 days
Method in brief: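 Each value is a visual 0–100 response rating taken against controls 13 to 15 days after treatment in the greenhouse. Plants received formulated chemical postemergence at the 1- to 4-leaf stage or, in flooded paddy, at the 2-leaf stage.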

[12] = test system: velvetleaf; assay: Test B pre-/postemergence herbicide test; type: in vivo, Abutilon theophrasti
Method in brief: as §3

[13] = test system: blackgrass; assay: Test B postemergence herbicide test; type: in vivo, Alopecurus myosuroides; conditions: scale 0 (no effect) to 100 (complete control)
Method in brief: as §1

[14] = test system: corn; assay: Test B pre-/postemergence herbicide test; type: in vivo, Zea mays
Method in brief: as §3

[15] = test system: large crabgrass; assay: Test B pre-/postemergence herbicide test; type: in vivo, Digitaria sanguinalis
Method in brief: as §3

[16] = test system: pigweed; assay: Test B pre-/postemergence herbicide test; type: in vivo, Amaranthus retroflexus
Method in brief: as §3

[17] = test system: ducksalad; assay: Test B flooded paddy test; type: in vivo, Heteranthera limosa; conditions: 1000 g ai/ha, visual rating, scale 0 to 100 (0 no effect, 100 complete control), 13 to 15 days
Method in brief: as §1

[18] = test system: wild oat; assay: Test B postemergence herbicide test; type: in vivo, Avena fatua; conditions: scale 0 (no effect) to 100 (complete control)
Method in brief: as §2

[19] = Postemergence, 500 g ai/ha, visual rating after 13 to 15 days
[20] = postemergence, 125 g ai/ha, visual rating
[21] = Postemergence, 500 g ai/ha, visual rating after 13 to 15 days, scale 0 (no effect) to 100 (complete control)
[22] = postemergence, 125 g ai/ha, visual rating, scale 0 (no effect) to 100 (complete control)
[23] = preemergence, 125 g ai/ha, 0 to 100 scale, 0 is no effect, 100 is complete control
[24] = Preemergence, 500 g ai/ha, scale 0 to 100

CCNC(=O)c1cc(NC(=O)c2cc(C(C)(C)C)nn2CC)ccc1C [Compound 68]
Barnyardgrass plant response rating [1]: 0
Plant response rating, Wheat [2, 19]: 0
Wheat plant response rating [2, 20]: 0
Plant response rating, Surinam Grass [3, 21]: 0
Surinam Grass plant response rating [3, 22]: 0
Plant response rating, Surinam Grass [3, 23]: 0
Plant response rating, Barnyardgrass [4, 21]: 0
Barnyardgrass plant response rating [4, 24]: 10
Barnyardgrass plant response rating [4, 22]: 0
Plant response rating, Barnyardgrass [4, 23]: 0
Plant response rating, Morningglory [5, 21]: 0
Morningglory plant response rating [5, 22]: 0
Plant response rating, Morningglory [5, 23]: 20
Plant response rating, Cocklebur [6, 21]: 10
Cocklebur plant response rating [6, 24]: 0
Cocklebur plant response rating [6, 22]: 10
Plant response rating, Cocklebur [6, 23]: 0
Plant response rating, Lambsquarters [7, 21]: 10
Lambsquarters plant response rating [7, 22]: 0
Plant response rating, Lambsquarters [7, 23]: 20
Plant response rating, Foxtail, Giant [8, 21]: 0
Foxtail, Giant plant response rating [8, 24]: 0
Foxtail, Giant plant response rating [8, 22]: 0
Plant response rating, Foxtail, Giant [8, 23]: 0
Sedge, Umbrella plant response rating [9]: 0
Plant response rating, Rice [10]: 0
Rice plant response rating [11]: 0
Plant response rating, Velvetleaf [12, 21]: 0
Velvetleaf plant response rating [12, 22]: 0
Plant response rating, Velvetleaf [12, 23]: 0
Plant response rating, Blackgrass [13, 19]: 20
Blackgrass plant response rating [13, 20]: 10
Plant response rating, Corn [14, 21]: 0
Corn plant response rating [14, 24]: 0
Corn plant response rating [14, 22]: 0
Plant response rating, Corn [14, 23]: 0
Plant response rating, Crabgrass, Large [15, 21]: 0
Crabgrass, Large plant response rating [15, 24]: 0
Crabgrass, Large plant response rating [15, 22]: 0
Plant response rating, Crabgrass, Large [15, 23]: 0
Plant response rating, Pigweed [16, 21]: 30
Pigweed plant response rating [16, 22]: 10
Plant response rating, Pigweed [16, 23]: 70
Ducksalad plant response rating [17]: 0
Plant response rating, Oat, Wild [18, 19]: 20
Oat, Wild plant response rating [18, 20]: 10
